This note sets out measurements from ChEMBL document CHEMBL1201862, “PubChem BioAssay data set” (2004).

Test systems include OVCAR-5; SF-268; NCI/ADR-RES; BT-549; SK-MEL-2; SF-539; OVCAR-8; RXF 393; NCI-H23; UACC-62; SF-295; MDA-MB-435; SR; EKVX; ACHN; HCT-15; Malme-3M; DU-145; MDA-N; HCT-116.
Test in all cases: NCI-60 cell line screen, 48 h

Counter-ions that a name gives are not always drawn.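 Five concentrations, 48 hours, 96-well plates. GI50: concentration for 50% inhibition of growth.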 Active and inactive are the calls of the source. No stated cut-off is given here; in the data, active = GI50 up to about 1.1 µM and inactive = higher.

Consider `Cn1cc(C[C@@H](N)C(=O)O)c2ccccc21` [INDOXIMOD], for which the GI50 in the assay on OVCAR-5, in the assay with SF-268, in the assay with NCI/ADR-RES, in the assay with BT-549, with SK-MEL-2 and in the assay on SF-539 was > 100 µM (inactive) in each case. Further, the GI50 with OVCAR-8 was > 100 µM (inactive); with RXF 393, 20 µM (inactive); with NCI-H23, > 100 µM (inactive); in the assay with UACC-62, > 100 µM (inactive); with SF-295, > 100 µM (inactive); with MDA-MB-435 it was > 100 µM (inactive). For the same compound, the GI50 in the assay with SR was > 100 µM (inactive); in the assay on EKVX it was > 100 µM (inactive); in the assay with ACHN, > 100 µM (inactive); in the assay with HCT-15 it was greater than 100 µM; in the assay with Malme-3M, > 100 µM (inactive); in the assay on DU-145, > 100 µM (inactive). Further, the GI50 in the assay with MDA-N and with HCT-116 was > 100 µM (inactive) in each case.

As to `CCN(CC)CCNc1ccc(C)c2sc3ccccc3c(=O)c12` [LUCANTHONE HYDROCHLORIDE], the GI50 was 3.05 µM (inactive) with OVCAR-5; 5.81 µM (inactive) in the assay on SF-268; 4.3 µM (inactive) in the assay on NCI/ADR-RES; 4.36 µM (inactive) in the assay on BT-549; 3.83 µM (inactive) in the assay with SK-MEL-2; 2.75 µM (inactive) in the assay with SF-539. The GI50 in the assay on OVCAR-8 is 3.4 µM (inactive); with RXF 393, 1.98 µM (inactive); in the assay with NCI-H23, 3.33 µM (inactive); with UACC-62 it was 1.84 µM (inactive); in the assay with SF-295, 2.18 µM (inactive); with MDA-MB-435, 2.04 µM (inactive). Also, the GI50 with SR is 2.33 µM (inactive); with EKVX, 6.82 µM (inactive); in the assay on ACHN, 3.54 µM (inactive); in the assay on HCT-15, 2.75 µM; in the assay with Malme-3M it was 3.84 µM (inactive); in the assay on DU-145, 6.67 µM (inactive). Besides, the results for the GI50 in the assay with MDA-N and in the assay with HCT-116 were 1.95 µM (inactive) and 1.91 µM (inactive), respectively.
